According to patent publication US8933122B2, “Use of cationic surfactants as sporicidal agents” (Laboratorios Miret, S.A., priority 2008, dated 2015):

Columns and labels:
[1] = system: Clostridium perfringens ATCC 77454; details: Gram + Bacteria; cited from earlier work
[2] = system: Bacillus subtilis ATCC 6633; details: Gram + Bacteria; cited from earlier work
[3] = human beings; cited from earlier work
[4] = system: Aspergillus niger fungical spores; assay: Fungicide activity, UNE-EN 1275 (Example 2); format: cell-based; details: 20° C.; for Test of LAE fungicide activity (Na), surviving spores count: N 5 × 10^7 cfu/mL
From the text: The determination of the fungicide activity of LAE has been carried out according to the European standard UNE-EN 1275: “Chemical disinfectant and antiseptic. Fungicide activity. Test method and requirements”.
The fungicide activity of a given product is defined by its capacity to reduce at least by 10^4 the amount of Aspergillus niger fungical spores in suspension, in the conditions established in the method.
The product is in contact with a suspension of fungical spores during an established period of time (60 minutes). After this time, the effect of the product is neutralized by adding Polysorbate 80 in water solution at 2%, preceding to the surviving spores count.
• 1. Spore suspension obtained from a spored-form culture of Aspergillus niger. • 2. Count of the spore suspension of Aspergillus niger. • 3. The possible toxic effect of the neutralizer on the spores in the absence of the product is valued. • 4. Evaluation of the neutralizing effect of the neutralizer over the product. • 5. Evaluation of the fungicide effect of the product. • 6. Result calculation. Results:
Tabulation of the Method and Test Validation Results (at 20° C.):
Fungicide activity is calculated as follows: R=N×0.1/Na N cfu/mL of the fungical spore suspension Na cfu/mL of the fungicide activity The calculated reduction of a solution of: • 100 μg/mL of LAE is R=3.1×10^2 cfu/mL • 200 μg/mL of LAE is R=1.3×10^3 cfu/mL • 300 μg/mL of LAE is R=1.4×10^3 cfu/mL • 400 μg/mL of LAE is R=1.7×10^3 cfu/mL • 500 μg/mL of LAE is R>10^4 cfu/mL
A product is considered fungicide if its use results in a reduction in the number of Aspergillus niger fungical spores equal to or above 10^4 after being in contact for 60 minutes in the conditions set in UNE-EN 1275.

[5] = system: Gliocadium virens ATCC 4645; details: Fungi; cited from earlier work

SMILES: CCCCCCCCCCCC(=O)N[C@@H](CCCN=C(N)N)C(=O)OCC.Cl [LAE, ethyl ester of the lauramide of the arginine monohydrochloride]
- M.I.C. [1]: 16 ppm
- M.I.C. [2]: 16 ppm
- tolerability and toxicity in practical use [3]: well tolerated and to display a very low toxicity to human beings
- calculated reduction R=N×0.1/Na ([4]; 100 μg/mL of LAE, 60 minutes): 3.1×10^2 cfu/mL
- calculated reduction R=N×0.1/Na ([4]; 200 μg/mL of LAE, 60 minutes): 1.3×10^3 cfu/mL
- calculated reduction R=N×0.1/Na ([4]; 300 μg/mL of LAE, 60 minutes): 1.4×10^3 cfu/mL
- calculated reduction R=N×0.1/Na ([4]; 400 μg/mL of LAE, 60 minutes): 1.7×10^3 cfu/mL
- calculated reduction R=N×0.1/Na ([4]; 500 μg/mL of LAE, 60 minutes): > 10^4 cfu/mL
- concentration at which fungicide active (reduction equal to or above 10^4) ([4]; 60 minutes contact, UNE-EN 1275): ≥ 500 ppm
- concentration from which a total inhibition of fungical spore germination has been observed ([4]; 60 minutes): ≥ 500 ppm
- concentration from which there is inhibition of fungical spore germination ([4]; 60 minutes): ≥ 100 ppm
- Test of LAE fungicide activity (Na), surviving spores count ([4]; LAE 12.5 μg/mL, 60 minutes contact): >300 cfu/mL
- Test of LAE fungicide activity (Na), surviving spores count ([4]; LAE 25 μg/mL, 60 minutes contact): >300 cfu/mL
- Test of LAE fungicide activity (Na), surviving spores count ([4]; LAE 50 μg/mL, 60 minutes contact): >300 cfu/mL
- Test of LAE fungicide activity (Na), surviving spores count ([4]; LAE 100 μg/mL, 60 minutes contact): 1.6 × 10^4 cfu/mL
- Test of LAE fungicide activity (Na), surviving spores count ([4]; LAE 200 μg/mL, 60 minutes contact): 3.9 × 10^3 cfu/mL
- Test of LAE fungicide activity (Na), surviving spores count ([4]; LAE 300 μg/mL, 60 minutes contact): 3.5 × 10^3 cfu/mL
- Test of LAE fungicide activity (Na), surviving spores count ([4]; LAE 400 μg/mL, 60 minutes contact): 3.0 × 10^3 cfu/mL
- Test of LAE fungicide activity (Na), surviving spores count ([4]; LAE 500 μg/mL, 60 minutes contact): No
- Test of LAE fungicide activity (Na), surviving spores count ([4]; LAE 1000 μg/mL, 60 minutes contact): No
- M.I.C. [5]: 32 ppm
